US20080020077A1, “Association Of Vegetal Extracts Based On Gooseberries, Black Orchids And Black Tulips And Topical Composition Comprising The Association Of Said Vegetal Extracts” (priority 2004, published 2008)

Test system: collagen
Assay: Collagen content of human fibroblasts (hydroxyproline by reverse-phase HPLC)
Type: cell-based
Details: positive reference, versus control
Description: For this study, the fibroblasts were cultured in the same way as in paragraph 1.4.1. After the incubation period, the fibroblasts were recovered by centrifugation. The pellets were digested with […] (1 mg/cell pellet) in […] acetic acid for 24 hours at 4° C. After centrifugation at 10 000 g, the collagens were precipitated with 1 M sodium chloride (NaCl), and the precipitate was resuspended and then dialyzed. The primary amino acids were derivatized with o-phthaldehyde (OPA) acid, thus eliminating their interference. Hydroxyproline and proline were then derivatized with NBD-Cl by coupling the amino groups to NBD-CL. The NBD-Hyp was separated and identified by reverse-phase HPLC. […] The mobile phase is pre-filtered and then degassed before use. • The solutions are prepared in the following way: […] The standard curve is prepared from a solution of hydroxyproline at 50 mg/l. Successive dilutions make it possible to obtain solutions ranging from 0.5 to 40 mg/l. The derivatization and the establishment of the standard curve are carried out using 10 μl of a standard solution at various concentrations, mixed with 10 μl of the buffer. After the addition of 5 μl of OPA and agitation, the tubes are kept at ambient temperature for 5 min and then 10 μl of the NBD-Cl solution are added. […] The tubes are then removed and the orange coloration makes it possible to verify the derivatization. […]

O=C1O[C@H]([C@@H](O)CO)C(O)=C1O [Vit C, vitamin C]
% incorporation: +61%
